This note sets out measurements from US11795177B2, “Substituted quinoline analogs as aldehyde dehydrogenase 1A1 (ALDH1A1) inhibitors” (THE UNITED STATES OF AMERICA, AS REPRESENTED BY THE …, priority 2017, dated 2023).

SMILES strings stand for the structures.

Experiment [1] relates to MIA PaCa-2 cells. Put plainly: MIA PaCa2 cell-based assay (1,536-well high-content imaging ALDEFLUOR assay). Details: species or system human. The following applies: Homo sapiens, 0.5 h, ALDEFLUOR BAAA substrate 500 nM, 30 minutes. The essentials:
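MIA PaCa-2 cells (1,000/well), plated overnight, given BAAA substrate (500 nM) plus Hoechst 33342 (0.5 nM), then compound (16-point, 1.4 nM–47.8 μM final; 0.5% DMSO). After 30 min at 37° C, ALDH activity imaged by high-content microscopy as BAA-retaining (FITC) cells versus Hoechst-stained nuclei.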

The target in experiment [2] is T1, ALDH1A1 enzyme (Homo sapiens, UniProt P00352).
T1 sequence (P00352 1-501): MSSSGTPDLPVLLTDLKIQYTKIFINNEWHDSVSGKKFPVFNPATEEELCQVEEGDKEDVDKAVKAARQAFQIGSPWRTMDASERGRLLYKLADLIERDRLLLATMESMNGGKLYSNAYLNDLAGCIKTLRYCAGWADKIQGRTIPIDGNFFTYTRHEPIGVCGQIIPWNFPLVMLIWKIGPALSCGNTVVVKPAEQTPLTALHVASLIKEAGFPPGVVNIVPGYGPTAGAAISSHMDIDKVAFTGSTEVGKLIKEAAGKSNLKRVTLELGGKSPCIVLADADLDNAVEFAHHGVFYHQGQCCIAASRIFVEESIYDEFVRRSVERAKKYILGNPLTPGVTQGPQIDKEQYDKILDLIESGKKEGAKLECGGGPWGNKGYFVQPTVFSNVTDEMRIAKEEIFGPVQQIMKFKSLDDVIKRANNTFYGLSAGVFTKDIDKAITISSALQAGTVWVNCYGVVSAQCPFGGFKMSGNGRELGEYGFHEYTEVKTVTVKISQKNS
Briefly: ALDH1A1 enzymatic assay (in vitro). The following applies: ALDH1A1 enzyme 20 nM, NAD+ 1 mM, propionaldehyde 80 μM; read-out: ALDH1A1 IC50. Format: biochemical. Put shortly: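 ALDH1A1 (20 nM final) in 100 mM HEPES pH 7.5, 0.01% Tween 20 was preincubated 15 min at RT with compound (968 pM–57.2 μM final), then started with 1 mM NAD+ and 80 μM propionaldehyde. NADH fluorescence (ex 340/em 450 nm) followed kinetically for 10 min; change normalized to no-inhibitor and no-enzyme controls for percent inhibition and curve fitting.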

For orientation: IC50 means the concentration that inhibits the measured activity by half.

For `O=C(C1CC1)C1CCN(C(=O)c2cnc3ccc(F)cc3c2N2CCC3(CC2)OCCO3)CC1` [Example 191, (4-(cyclopropanecarbonyl)piperidin-1-yl)(6-fluoro-4-(1,4-dioxa-8-azaspiro[4.5]decan-8-yl)quinolin-3-yl)methanone], the IC50 in experiment [1] is 500 to 1000 nM; in experiment [2], less than 500 nM.

With `O=C(C1CC1)C1CCN(C(=O)c2cnc3c(F)cc(F)cc3c2N2CCC3(CC2)OCCO3)CC1` [Example 192, (4-(cyclopropanecarbonyl)piperidin-1-yl)(6,8-difluoro-4-(1,4-dioxa-8-azaspiro[4.5]decan-8-yl)quinolin-3-yl)methanone], the IC50 in experiment [1] was 500 to 1000 nM; in experiment [2], less than 500 nM.

As to `O=C(C1CC1)C1CCN(C(=O)c2cnc3cc(F)c(F)cc3c2N2CCC3(CC2)OCCO3)CC1` [Example 193, (4-(cyclopropanecarbonyl)piperidin-1-yl)(6,7-difluoro-4-(1,4-dioxa-8-azaspiro[4.5]decan-8-yl)quinolin-3-yl)methanone], the IC50 was 1000 to 10000 nM in experiment [1] and less than 500 nM in experiment [2].

`CC1(C#N)CCN(c2c(C(=O)N3CCC(C(=O)C4CC4)CC3)cnc3c(F)cc(F)cc23)CC1` [Example 195, 1-(3-(4-(cyclopropanecarbonyl)piperidine-1-carbonyl)-6,8-difluoroquinolin-4-yl)-4-methylpiperidine-4-carbonitrile]: the values for the 50% inhibitory concentration (IC50) in experiment [1] and in experiment [2] were 1000 to 10000 nM and less than 500 nM, respectively.

As to `CC1(C#N)CCN(c2c(C(=O)N3CCC(C(=O)C4CC4)CC3)cnc3cc(F)c(F)cc23)CC1` [Example 196, 1-(3-(4-(cyclopropanecareonyl)piperidine-1-carbonyl)-6,7-difluoroquinolin-4-yl)-4-methylpiperidine-4-carbonitrile], the results for the IC50 in experiment [1] and in experiment [2] were 1000 to 10000 nM and less than 500 nM, respectively.

In the case of `CS(=O)(=O)N1CCN(C(=O)c2cnc3ccc(F)cc3c2N2CCC(Cc3ccccc3)CC2)CC1` [Example 198, (4-(4-benzylpiperidin-1-yl)-6-fluoroquinolin-3-yl)(4-(methylsulfonyl)piperazin-1-yl)methanone], the IC50 in experiment [1] was greater than 10000 nM; in experiment [2], less than 500 nM.

In the case of `O=C1CC2(CCN(c3c(C(=O)N4CCN(C(=O)C5CC5)CC4)cnc4ccc(F)cc34)CC2)c2ccccc21` [Example 203, 1′-(3-(4-(cyclopropanecarbonyl)piperazine-1-carbonyl)-6-fluoroquinolin-4-yl)spiro[indene-1,4′-piperidin]-3(2H)-one], the IC50 in experiment [1] and in experiment [2] was 1000 to 10000 nM each time.

As to `O=C(c1cnc2ccc(F)cc2c1N1CCC2(CC1)Cc1ccccc1C2=O)N1CCN(C(=O)C2CC2)CC1` [Example 204, 1′-(3-(4-(cyclopropanecarbonyl)piperazine-1-carbonyl)-6-fluoroquinolin-4-yl)spiro[indene-2,4′-piperidin]-1(3H)-one], the IC50 in experiment [1] was greater than 10000 nM; in experiment [2], 1000 to 10000 nM.

With `Cn1ncc2c(N3CCC(C)(C#N)CC3)c(C(=O)N3CCN(C(=O)C4CC4)CC3)cnc21` [Example 205, 1-(5-(4-(cyclopropanecarbonyl)piperazine-1-carbonyl)-1-methyl-1H-pyrazolo[3,4-b]pyridin-4-yl)-4-methylpiperidine-4-carbonitrile], the results for the IC50 in experiment [1] and in experiment [2] were 1000 to 10000 nM and less than 500 nM, respectively.

Take `CCS(=O)(=O)N1CCN(C(=O)c2cnc3c(cnn3C)c2N2CCC(C)(C#N)CC2)CC1` [Example 207, 1-(5-(4-(ethylsulfonyl)piperazine-1-carbonyl)-1-methyl-1H-pyrazolo[3,4-b]pyridin-4-yl)-4-methylpiperidine-4-carbonitrile]: the IC50 in experiment [1] is 1000 to 10000 nM; in experiment [2], less than 500 nM.

Regarding `CS(=O)(=O)N1CCN(C(=O)c2cnc3ccc(F)cc3c2-c2ccc(CC#N)cc2)CC1` [Example 212, 2-(4-(6-fluoro-3-(4-(methylsulfonyl)piperazine-1-carbonyl)quinolin-4-yl)phenyl)acetonitrile], the figures for the IC50 in experiment [1] and in experiment [2] were 1000 to 10000 nM and less than 500 nM, respectively.

With `N#CCC1CCN(c2c(C(=O)N3CCN(C(=O)C4CC4)CC3)cnc3ccc(F)cc23)CC1` [Example 213, 2-(1-(3-(4-(cyclopropanecarbonyl)piperazine-1-carbonyl)-6-fluoroquinolin-4-yl)piperidin-4-yl)acetonitrile], the IC50 in experiment [1] and in experiment [2] was 1000 to 10000 nM each time.

Consider `CS(=O)(=O)N1CCN(C(=O)c2cnc3ccc(F)cc3c2N2CCC(CC#N)CC2)CC1` [Example 214, 2-(1-(6-fluoro-3-(4-(methylsulfonyl)piperazine-1-carbonyl)quinolin-4-yl)piperidin-4-yl)acetonitrile], for which the concentration for half-maximal inhibition (IC50) in experiment [1] is greater than 10000 nM; in experiment [2] it was 1000 to 10000 nM.

Turning to `CC(=O)C1(c2ccccc2)CCN(c2c(C(=O)N3CCN(C(=O)C4CC4)CC3)cnc3ccc(F)cc23)CC1` [Example 215, 1-(1-(3-(4-(cyclopropanecarbonyl)piperazine-1-carbonyl)-6-fluoroquinolin-4-yl)-4-phenylpiperidin-4-yl)ethanone], the IC50 in experiment [1] was 500 to 1000 nM; in experiment [2] it was less than 500 nM.

Regarding `CCS(=O)(=O)N1CCN(C(=O)c2cnc3sccc3c2N2CCC(C)(C#N)CC2)CC1` [Example 218, 1-(5-(4-(ethylsulfonyl)piperazine-1-carbonyl)thieno[2,3-b]pyridin-4-yl)-4-methylpiperidine-4-carbonitrile], the figures for the IC50 in experiment [1] and in experiment [2] were 1000 to 10000 nM and less than 500 nM, respectively.

For `C=CC(=O)N1CCN(c2c(C(=O)N3CCN(S(C)(=O)=O)CC3)cnc3ccc(F)cc23)CC1` [Example 220, 1-(4-(6-fluoro-3-(4-(methylsulfonyl)piperazine-1-carbonyl)quinolin-4-yl)piperazin-1-yl)prop-2-en-1-one], the values for the IC50 in experiment [1] and in experiment [2] were greater than 10000 nM and 1000 to 10000 nM, respectively.

Consider `CS(=O)(=O)N1CCN(C(=O)c2cnc3ccc(F)cc3c2N2CCN(C(=O)/C(C#N)=C/C3CC3)CC2)CC1` [Example 222, (e)-3-cyclopropyl-2-(4-(6-fluoro-3-(4-(methylsulfonyl)piperazine-1-carbonyl)quinolin-4-yl)piperazine-1-carbonyl)acrylonitrile], for which the figures for the IC50 in experiment [1] and in experiment [2] were greater than 10000 nM and less than 500 nM, respectively.

Regarding `C[C@@H]1CN(C(=O)c2cnc3ccc(F)cc3c2N2CCC(C)(C#N)CC2)CCN1C(=O)C1CC1` [Example 224, (R)-1-(3-(4-(cyclopropanecareonyl)-3-methylpiperazine-1-carbonyl)-6-fluoroquinolin-4-yl)-4-methylpiperidine-4-carbonitrile], the figures for the IC50 in experiment [1] and in experiment [2] were greater than 10000 nM and 1000 to 10000 nM, respectively.

Consider `C[C@@H]1CN(C(=O)c2cnc3ccc(F)cc3c2N2CCC(C)(C#N)CC2)C[C@H](C)N1S(C)(=O)=O` [Example 225, 1-(3-((3R*,5S*)-3,5-dimethyl-4-(methylsulfonyl)piperazine-1-carbonyl)-6-fluoroquinolin-4-yl)-4-methylpiperidine-4-carbonitrile], for which the IC50 in experiment [1] is greater than 10000 nM; in experiment [2], 1000 to 10000 nM.

For the compound `C[C@H]1CN(C(=O)c2cnc3ccc(F)cc3c2N2CCC(C)(C#N)CC2)CCN1C(=O)C1CC1` [Example 227, (S)-1-(3-(4-(cyclopropanecarbonyl)-3-methylpiperazine-1-carbonyl)-6-fluoroquinolin-4-yl)-4-methylpiperidine-4-carbonitrile], the IC50 in experiment [1] was 1000 to 10000 nM; in experiment [2], less than 500 nM.
